How the values were obtained:
mouse portal vein = assay: Wire myography, relaxation of phenylephrine pre-constricted vein; settings: for Relaxation of portal vein: 0.1-10 μM, pre-constricted with 10 μM phenylephrine; for EC50: mouse portal vein pre-constricted with 10 μM phenylephrine, Hill fit
Experimental: Mice were anaesthetised with isoflurane (5% induction and 1.5% maintenance) in 95% O2 according to Schedule 1 procedure approved by the UK Home Office. The portal vein was quickly dissected and placed in Krebs solution. The Krebs PV solution consisted of 118 mM NaCl, 4.7 mM KCl, 2.5 mM CaCl2, 1.2 mM KH2PO4, 1.2 mM MgSO4·7H2O, 25.2 mM NaHCO3 and 11.1 mM glucose. By means of a dissecting microscope, adhering perivascular tissue was carefully removed and the vein was cut into 1 mm segments.
Vein segments were mounted onto two thin stainless steel wires in an isometric myograph (Multi Wire Myograph System 620M from Danish Myograph Technology [DMT]), for which the force transducer was calibrated once per month according to the manufacturer's instructions. The recording chamber was filled with gassed Krebs solution (95% O2/5% CO2, pH 7.4). The segments were then stretched to a normalised internal diameter according to the manufacturer's instructions. The mounted rings were kept in a 5 ml chamber containing Krebs solution at 37°C and continuously bubbled with a gas mixture of 95% O2 and 5% CO2 (pH 7.4). After an equilibration period of 60 min, the contractile function of the vessel was tested by replacing the Krebs solution by 60 mM K^+ solution. Following washout, the vein was contracted once with 10 μM phenylephrine and then Yoda1, KC159 or KC289 was applied with the concentrations of 0.1 to 10 μM. The NOS inhibitor, L‐NAME, (100 μM), was pre‐incubated for 20 min before the PIEZO1 modulator.
Because the anticipated effect of test compounds was to cause vessel relaxation, phenylephrine was applied to induce tension and the maximum value of this tension was defined as 0% relaxation (no relaxation). The value of tension immediately prior to application of phenylephrine was defined as 100% relaxation. Data are normalised to these values because, otherwise, the intrinsic variability in the absolute amount of tension induced by phenylephrine obscured exploration of the relaxant effect of compounds.
OriginPro 2020 was used for the analysis of myography data. Myography traces show readings taken every 0.5 or 1 s and were smoothed with the Savitzky–Golay filter set to 70 points. To compare the agonistic activity of Yoda1 analogues, basal vessel tension prior to compound injection was subtracted. Maximal tension in the presence of PE alone was used to define 0% relaxation. The tension value prior to PE application was defined as 100% relaxation. Following the addition of test compounds, tension readings were taken at the last time point of the treatments and expressed as percentage relaxation.

hPIEZO1 = target: T1, hPIEZO1 (Homo sapiens, UniProt Q92508); assay: Automated patch clamp (SyncroPatch 384) on hPIEZO1-TREx cells; type: cell-based; settings: for Effect on M-Stim-evoked currents: hPIEZO1-TREx cells, −80 mV; for Cells responding to activation: hPIEZO1-TREx, 10 μM KC157, 10 μM Yoda1, 5 μM KC159
T1 construct: expressed in transfected cells
T1 sequence (Q92508 whole entry): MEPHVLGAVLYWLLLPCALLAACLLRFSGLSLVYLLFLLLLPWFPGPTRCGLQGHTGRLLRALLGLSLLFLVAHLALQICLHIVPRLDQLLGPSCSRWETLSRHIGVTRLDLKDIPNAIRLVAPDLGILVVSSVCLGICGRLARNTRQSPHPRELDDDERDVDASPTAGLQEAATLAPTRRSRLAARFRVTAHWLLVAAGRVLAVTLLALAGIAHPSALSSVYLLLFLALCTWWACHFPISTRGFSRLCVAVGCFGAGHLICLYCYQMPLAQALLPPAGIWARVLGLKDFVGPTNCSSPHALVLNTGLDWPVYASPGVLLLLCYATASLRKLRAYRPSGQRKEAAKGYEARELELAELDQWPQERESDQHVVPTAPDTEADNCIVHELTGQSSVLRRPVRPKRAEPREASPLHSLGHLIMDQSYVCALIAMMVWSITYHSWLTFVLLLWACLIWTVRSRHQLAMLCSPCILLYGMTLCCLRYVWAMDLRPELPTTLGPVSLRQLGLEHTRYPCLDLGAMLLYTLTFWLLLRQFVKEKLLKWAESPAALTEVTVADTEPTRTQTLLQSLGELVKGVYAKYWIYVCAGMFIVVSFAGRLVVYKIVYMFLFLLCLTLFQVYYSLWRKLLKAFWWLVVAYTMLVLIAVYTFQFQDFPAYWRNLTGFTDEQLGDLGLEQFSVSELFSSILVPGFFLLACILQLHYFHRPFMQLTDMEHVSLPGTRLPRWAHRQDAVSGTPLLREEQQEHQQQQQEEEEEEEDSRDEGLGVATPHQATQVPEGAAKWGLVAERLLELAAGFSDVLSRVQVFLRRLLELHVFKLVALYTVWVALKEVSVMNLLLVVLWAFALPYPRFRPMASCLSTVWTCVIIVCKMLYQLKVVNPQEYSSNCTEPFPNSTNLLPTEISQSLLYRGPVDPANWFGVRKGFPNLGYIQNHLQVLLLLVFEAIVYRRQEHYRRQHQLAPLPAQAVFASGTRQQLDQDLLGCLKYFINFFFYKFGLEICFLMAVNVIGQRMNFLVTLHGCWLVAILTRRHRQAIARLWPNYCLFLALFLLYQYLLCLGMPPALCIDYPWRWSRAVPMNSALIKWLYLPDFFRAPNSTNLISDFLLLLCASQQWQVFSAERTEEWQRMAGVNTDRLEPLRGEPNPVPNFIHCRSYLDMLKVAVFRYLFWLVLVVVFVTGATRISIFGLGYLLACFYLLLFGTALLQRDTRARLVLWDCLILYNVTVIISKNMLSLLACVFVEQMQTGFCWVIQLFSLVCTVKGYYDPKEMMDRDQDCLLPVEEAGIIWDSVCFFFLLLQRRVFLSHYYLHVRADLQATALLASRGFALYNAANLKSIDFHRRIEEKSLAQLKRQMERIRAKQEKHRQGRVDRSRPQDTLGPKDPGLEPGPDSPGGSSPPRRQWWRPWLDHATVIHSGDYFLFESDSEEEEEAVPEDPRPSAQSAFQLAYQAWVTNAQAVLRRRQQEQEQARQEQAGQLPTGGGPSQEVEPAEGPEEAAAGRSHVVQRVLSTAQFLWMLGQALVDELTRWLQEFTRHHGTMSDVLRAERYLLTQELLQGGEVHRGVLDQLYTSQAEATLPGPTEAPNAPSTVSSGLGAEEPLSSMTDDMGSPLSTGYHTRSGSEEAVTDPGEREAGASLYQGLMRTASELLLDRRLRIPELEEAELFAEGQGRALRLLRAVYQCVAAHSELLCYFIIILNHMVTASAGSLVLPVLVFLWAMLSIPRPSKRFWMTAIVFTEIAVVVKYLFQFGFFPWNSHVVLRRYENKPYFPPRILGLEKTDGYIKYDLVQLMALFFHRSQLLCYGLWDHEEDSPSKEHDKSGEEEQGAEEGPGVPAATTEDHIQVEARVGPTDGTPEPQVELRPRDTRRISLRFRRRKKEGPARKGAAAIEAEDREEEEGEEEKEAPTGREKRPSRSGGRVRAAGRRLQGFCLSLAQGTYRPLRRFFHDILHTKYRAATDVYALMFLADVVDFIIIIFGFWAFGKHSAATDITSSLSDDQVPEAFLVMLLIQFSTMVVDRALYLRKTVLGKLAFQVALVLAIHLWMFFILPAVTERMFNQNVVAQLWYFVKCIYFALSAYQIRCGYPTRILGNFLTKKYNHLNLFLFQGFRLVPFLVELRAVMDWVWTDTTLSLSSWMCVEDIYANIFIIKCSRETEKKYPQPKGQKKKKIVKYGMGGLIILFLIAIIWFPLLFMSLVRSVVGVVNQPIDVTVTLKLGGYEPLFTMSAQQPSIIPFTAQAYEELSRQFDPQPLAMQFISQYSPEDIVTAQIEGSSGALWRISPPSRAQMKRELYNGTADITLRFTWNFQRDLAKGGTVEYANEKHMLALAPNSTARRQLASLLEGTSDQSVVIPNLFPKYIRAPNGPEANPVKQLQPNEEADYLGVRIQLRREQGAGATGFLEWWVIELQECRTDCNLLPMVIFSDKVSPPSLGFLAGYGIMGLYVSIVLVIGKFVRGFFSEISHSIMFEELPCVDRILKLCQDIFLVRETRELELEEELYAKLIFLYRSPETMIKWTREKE
Experimental: (§1) For automated patch clamp, cells were cultured and harvested according to Nanion's standard cell culture protocol (Obergrussberger et al., [2014]). hPIEZO1‐TREx cells were induced to express PIEZO1 by incubation with 0.5 μg·ml^−1 tetracycline 24 h prior to experiments. Whole‐cell patch‐clamp recordings were conducted on HEK‐TREx, hPIEZO1‐TREx and mPIEZO1‐TREx cells according to Nanion's standard procedure for the SyncroPatch 384, using medium resistance (4–5 MΩ) chips (Obergrussberger et al., [2018]). Cells were held at −80 mV for the duration of the experiment. The channel was activated by mechanical forces in the absence and presence of the agonists. To stimulate PIEZO1 channels mechanically (mechanical stimulation [M‐Stim]), we dispensed 20 μl of solution (either reference or agonist) locally to the cell at a pipetting speed of 110 μl·s^−1 in synchrony with a triggered recording of the current response at the holding potential. The internal solution contained 110 mM KF, 10 mM KCl, 10 mM NaCl, 10 mM HEPES and 10 mM EGTA, pH adjusted to 7.2 with KOH, and the external solution contained 140 mM NaCl, 4 mM KCl, 2 mM CaCl2, 1 mM MgCl2, 5 mM glucose, 10 mM HEPES, pH adjusted to 7.4 with NaOH, and 0.1% DMSO to match the DMSO concentration of the compound solutions. For PIEZO1 stimulation, KC159, KC157 or Yoda1 was applied directly onto the cells via a pipette application. One chip of the SyncroPatch 384 is equipped with 384 wells served by 384 robotic pipettes and connected to 384 individual amplifiers, allowing us to test 384 distinct cells in one experiment. We tested the effect of each specified analogue on mPIEZO1‐, hPIEZO1‐ and untransfected HEK‐TREx cells in parallel and in comparison to mechanical and Yoda1 stimulation. To estimate the EC50 values, four concentrations of each agonist were tested per cell line in one chip, with each cell receiving single concentrations, and the concentration–response curve was calculated across the whole chip (384 cells). Only cells with seal resistance >0.3 GΩ, series resistance <20 MΩ and cell capacitance >5 and <40 pF were used for analysis.
(§2) DataControl 384 (Nanion Technologies GmbH), Prism 9 (GraphPad) and OriginPro 2020 (OriginLab) were used for all analysis of automated patch‐clamp data. For manual and automated patch‐clamp data, n represents the number of cells recorded from successfully in each experimental condition, sampled from two to six batches of cells or 384‐well chips in automated patch clamp. For manual patch‐clamp experiments, each cell/patch recording (n) is considered as an independent experiment because each was made independently at a separate time, using a separate coverslip of cells and using a separate patch pipette. In some instances, more than one such independent recording was made from the same batch of cultured or transfected cells. These n values are considered as independent. Each cell was studied alone and from a separate coverslip in the case for manual patch clamp. To estimate the EC50 values of the agonists in automated patch‐clamp studies, the peak current in the presence of the agonist was normalised to the peak current in the presence of the reference solution. Single‐point concentration–response curves were fitted with a standard Hill equation to estimate EC50 values. P < 0.05 was deemed significant. For automated patch‐clamp experiments, we included some data for n < 5 (Figure 7a,b). […] Such replicates are a feature of, and a rationale for, this automated technology, which is an innovation for the type of research shown here but already commonly used in the pharmaceutical industry for other ion channel studies to increase throughput and avoid waste from large volumes of independent cell cultures and minimise cost from expensive specially engineered plates. As a general strategy, our study used multiple independent technical approaches to address the same or similar questions. […]

mPIEZO1 = target: T2, mPIEZO1 (Mus musculus, UniProt E2JF22); assay: Automated patch clamp (SyncroPatch 384) on mPIEZO1-TREx cells; type: cell-based; settings: for Effect on M-Stim-evoked currents: mPIEZO1-TREx cells, −80 mV; for Cells responding to activation: mPIEZO1-TREx, 10 μM KC157, 10 μM Yoda1, 5 μM KC159
T2 construct: expressed in transfected cells
T2 sequence (E2JF22 whole entry): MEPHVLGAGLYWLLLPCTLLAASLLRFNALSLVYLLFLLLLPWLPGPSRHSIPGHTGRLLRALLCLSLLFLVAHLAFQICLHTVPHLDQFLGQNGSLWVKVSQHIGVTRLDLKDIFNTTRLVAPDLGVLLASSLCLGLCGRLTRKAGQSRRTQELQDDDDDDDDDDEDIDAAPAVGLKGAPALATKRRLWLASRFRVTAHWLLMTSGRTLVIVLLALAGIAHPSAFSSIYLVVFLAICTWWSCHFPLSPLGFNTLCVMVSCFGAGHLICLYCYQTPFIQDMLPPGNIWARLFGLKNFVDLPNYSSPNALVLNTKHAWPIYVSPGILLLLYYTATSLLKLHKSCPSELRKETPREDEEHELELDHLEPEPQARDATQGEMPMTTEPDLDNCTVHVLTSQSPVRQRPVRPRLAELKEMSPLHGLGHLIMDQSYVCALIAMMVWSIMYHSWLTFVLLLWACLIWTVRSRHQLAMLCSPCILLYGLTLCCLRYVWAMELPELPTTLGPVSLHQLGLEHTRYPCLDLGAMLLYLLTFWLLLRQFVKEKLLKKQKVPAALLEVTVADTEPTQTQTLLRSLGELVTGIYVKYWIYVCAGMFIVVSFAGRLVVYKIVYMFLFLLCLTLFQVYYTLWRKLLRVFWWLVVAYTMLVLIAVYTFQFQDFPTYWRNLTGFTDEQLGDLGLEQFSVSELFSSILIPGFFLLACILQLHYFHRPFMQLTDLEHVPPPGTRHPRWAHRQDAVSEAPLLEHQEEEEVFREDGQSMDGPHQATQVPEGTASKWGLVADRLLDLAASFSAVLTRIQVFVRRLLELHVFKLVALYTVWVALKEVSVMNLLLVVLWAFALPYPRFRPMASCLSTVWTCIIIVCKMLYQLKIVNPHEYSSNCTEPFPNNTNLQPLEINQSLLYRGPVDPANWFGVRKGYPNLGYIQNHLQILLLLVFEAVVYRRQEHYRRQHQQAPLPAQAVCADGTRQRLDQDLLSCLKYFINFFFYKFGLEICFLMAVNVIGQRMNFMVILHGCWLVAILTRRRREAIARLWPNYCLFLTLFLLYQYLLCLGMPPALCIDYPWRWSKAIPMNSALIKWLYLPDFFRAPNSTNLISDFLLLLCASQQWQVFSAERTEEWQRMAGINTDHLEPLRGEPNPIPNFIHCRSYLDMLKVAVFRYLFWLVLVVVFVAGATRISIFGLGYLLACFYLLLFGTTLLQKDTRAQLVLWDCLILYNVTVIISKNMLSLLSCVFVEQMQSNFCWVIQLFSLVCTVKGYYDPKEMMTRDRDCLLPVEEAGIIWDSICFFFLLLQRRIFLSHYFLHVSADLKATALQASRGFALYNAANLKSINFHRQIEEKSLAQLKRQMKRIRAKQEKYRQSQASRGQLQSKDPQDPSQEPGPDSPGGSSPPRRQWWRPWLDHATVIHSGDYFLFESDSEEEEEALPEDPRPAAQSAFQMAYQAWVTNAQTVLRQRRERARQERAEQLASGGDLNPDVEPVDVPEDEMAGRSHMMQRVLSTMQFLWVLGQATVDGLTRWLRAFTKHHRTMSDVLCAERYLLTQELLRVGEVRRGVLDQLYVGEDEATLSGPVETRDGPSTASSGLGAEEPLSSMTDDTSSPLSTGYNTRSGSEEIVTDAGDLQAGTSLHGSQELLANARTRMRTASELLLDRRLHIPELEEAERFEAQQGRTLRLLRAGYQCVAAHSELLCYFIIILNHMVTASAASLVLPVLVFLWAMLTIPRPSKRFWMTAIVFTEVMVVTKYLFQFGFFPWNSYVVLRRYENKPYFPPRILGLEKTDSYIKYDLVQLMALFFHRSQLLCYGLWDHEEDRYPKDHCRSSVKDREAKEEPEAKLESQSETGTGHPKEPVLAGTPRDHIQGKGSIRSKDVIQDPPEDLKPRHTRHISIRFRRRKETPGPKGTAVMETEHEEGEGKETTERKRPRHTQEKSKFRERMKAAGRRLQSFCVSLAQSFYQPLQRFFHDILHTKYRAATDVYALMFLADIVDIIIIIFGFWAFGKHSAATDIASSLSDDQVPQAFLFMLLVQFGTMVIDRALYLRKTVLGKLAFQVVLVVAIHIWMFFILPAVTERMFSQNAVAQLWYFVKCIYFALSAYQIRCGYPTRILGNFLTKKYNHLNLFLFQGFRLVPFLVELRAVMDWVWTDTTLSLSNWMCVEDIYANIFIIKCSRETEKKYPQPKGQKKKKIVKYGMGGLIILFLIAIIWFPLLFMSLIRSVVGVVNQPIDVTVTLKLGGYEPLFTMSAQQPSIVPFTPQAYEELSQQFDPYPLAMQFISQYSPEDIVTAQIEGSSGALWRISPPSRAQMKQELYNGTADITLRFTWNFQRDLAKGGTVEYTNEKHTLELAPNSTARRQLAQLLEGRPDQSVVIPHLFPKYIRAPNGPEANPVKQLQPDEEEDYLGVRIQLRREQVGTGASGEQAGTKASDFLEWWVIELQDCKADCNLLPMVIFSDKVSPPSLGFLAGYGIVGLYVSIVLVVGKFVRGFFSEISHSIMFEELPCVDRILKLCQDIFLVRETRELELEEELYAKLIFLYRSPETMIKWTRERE
Experimental: as §1, §2

SMILES | Relaxation of portal vein (mouse portal vein) | EC50 (mouse portal vein; Mus musculus) [nM] | Relaxation in portal vein from PIEZO1ΔEC mice (mouse portal vein; endothelial PIEZO1 deletion versus control mice) | Relaxant effect after L-NAME (mouse portal vein; pre-incubation with 100 μM L-NAME) | Effect on M-Stim-evoked currents (hPIEZO1; 10 μM) | Sustained component of current as % of peak current (hPIEZO1; 10 μM, hPIEZO1 cells, mean ± SD) [%] | EC50 (hPIEZO1; hPIEZO1, normalised peak current, maximum response not certain, read-out: EC50 (estimate)) [nM] | Cells responding to activation (hPIEZO1) | EC50 (mouse portal vein) [nM] | Effect on M-Stim-evoked currents (mPIEZO1; 10 μM) | Sustained component of current as % of the peak current amplitude (mPIEZO1; 10 μM, mPIEZO1 cells, mean ± SD) [%] | Cells responding to activation (mPIEZO1) | EC50 (mPIEZO1; mouse PIEZO1, normalised peak current, maximum response not certain, read-out: EC50 (estimate)) [nM]
O=C([O-])c1ccc(-c2nnc(SCc3c(Cl)cccc3Cl)s2)cc1.[K+] [KC289] | concentration‐dependent relaxation | 1200 | inhibited by endothelial PIEZO1 deletion | abolishes the relaxant effect |  |  |  |  |  |  |  |  | 
O=C(O)c1ccc(-c2nnc(SCc3c(Cl)cccc3Cl)s2)cc1 [KC159] | concentration‐dependent relaxation |  |  |  | greatly amplifies the currents | −4 ± 2 | ~1670 | more cells to respond compared with Yoda1 | 1140 | greatly amplifies the currents | 26 ± 8 | more cells to respond compared with Yoda1 | ~1540
Clc1cccc(Cl)c1CSc1nnc(-c2cnccn2)s1 [Yoda1, 2‐[5‐[[(2,6‐dichlorophenyl)methyl]thio]‐1,3,4‐thiadiazol‐2‐yl]pyrazine] | concentration‐dependent relaxation |  |  |  |  |  |  |  |  |  |  |  | 
O=C(O)c1ccccc1-c1nnc(SCc2c(Cl)cccc2Cl)s1 [KC157] |  |  |  |  | mostly fails to evoke responses |  |  | largely ineffective |  | mostly fails to evoke responses |  | largely ineffective | 
